Measured values as given in patent publication US20050171161A1, “Method of treatment or prevention of obesity” (priority 2002, published 2005).
Where a name gives a salt, the structure may show the parent alone. Read-outs that look alike come from different tables or passages of the source.

Legend:
[1] = target: T1, recombinant human CB2 receptor (Homo sapiens, UniProt P34972); assay: CB2 Receptor Binding Assay
T1 construct: expressed in transfected cells; host or cells: CHO cells (membranes)
Protocol: CB2 Receptor Binding Assay
The binding assay for CB2 receptor is conducted similarly, with recombinant human CB2 receptor expressed in CHO cells.

[2] = target: T2, recombinant human CB1 receptor (Homo sapiens, UniProt P21554); assay: Cannabinoid Receptor-1 (CB1) Binding Assay
T2 construct: expressed in transfected cells; host or cells: CHO cells (membranes)
T2 sequence (P21554 whole entry): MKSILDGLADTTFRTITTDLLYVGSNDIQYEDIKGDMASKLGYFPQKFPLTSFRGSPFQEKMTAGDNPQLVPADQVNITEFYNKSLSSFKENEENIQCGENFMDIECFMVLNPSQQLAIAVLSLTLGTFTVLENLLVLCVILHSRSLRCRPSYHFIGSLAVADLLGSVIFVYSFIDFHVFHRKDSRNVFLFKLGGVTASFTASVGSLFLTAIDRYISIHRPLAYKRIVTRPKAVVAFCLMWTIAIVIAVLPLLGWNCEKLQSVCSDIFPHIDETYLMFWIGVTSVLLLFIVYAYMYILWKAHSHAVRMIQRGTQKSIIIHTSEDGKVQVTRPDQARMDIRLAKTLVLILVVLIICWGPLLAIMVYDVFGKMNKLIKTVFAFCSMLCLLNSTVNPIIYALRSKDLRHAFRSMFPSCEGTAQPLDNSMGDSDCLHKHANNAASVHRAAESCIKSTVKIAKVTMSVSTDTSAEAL
Protocol: Cannabinoid Receptor-1 (CB1) Binding Assay.
Binding buffer contains 50 mM Tris-HCl, pH7.4, 2.5 mM EDTA, 5 mM MgCl2, 0.5 mg/ml fatty acid free bovine serum albumin and protease inhibitors (Cat#P8340, from Sigma). To initiate the binding reaction, 5 μl of radioligand solution is added, the mixture is incubated with gentle shaking on a shaker for 1.5 hours at 30° C. The binding is terminated by using 96-well harvester and filtering through GF/C filter presoaked in 0.05% polyethylenimine. The bound radiolabel is quantitated using scintillation counter.

Sodium channel site 2 = Sodium channel site 2 binding
Text: (§1) Ion channel assays have also been reported in the literature. The following are representative.

Calcium channel = Calcium channel binding
Text: as §1

Potassium channel (Ikr) = Potassium channel (Ikr) (Homo sapiens, UniProt Q12809); assay: Potassium channel (Ikr) binding
Sequence of Potassium channel (Ikr) (Q12809 whole entry): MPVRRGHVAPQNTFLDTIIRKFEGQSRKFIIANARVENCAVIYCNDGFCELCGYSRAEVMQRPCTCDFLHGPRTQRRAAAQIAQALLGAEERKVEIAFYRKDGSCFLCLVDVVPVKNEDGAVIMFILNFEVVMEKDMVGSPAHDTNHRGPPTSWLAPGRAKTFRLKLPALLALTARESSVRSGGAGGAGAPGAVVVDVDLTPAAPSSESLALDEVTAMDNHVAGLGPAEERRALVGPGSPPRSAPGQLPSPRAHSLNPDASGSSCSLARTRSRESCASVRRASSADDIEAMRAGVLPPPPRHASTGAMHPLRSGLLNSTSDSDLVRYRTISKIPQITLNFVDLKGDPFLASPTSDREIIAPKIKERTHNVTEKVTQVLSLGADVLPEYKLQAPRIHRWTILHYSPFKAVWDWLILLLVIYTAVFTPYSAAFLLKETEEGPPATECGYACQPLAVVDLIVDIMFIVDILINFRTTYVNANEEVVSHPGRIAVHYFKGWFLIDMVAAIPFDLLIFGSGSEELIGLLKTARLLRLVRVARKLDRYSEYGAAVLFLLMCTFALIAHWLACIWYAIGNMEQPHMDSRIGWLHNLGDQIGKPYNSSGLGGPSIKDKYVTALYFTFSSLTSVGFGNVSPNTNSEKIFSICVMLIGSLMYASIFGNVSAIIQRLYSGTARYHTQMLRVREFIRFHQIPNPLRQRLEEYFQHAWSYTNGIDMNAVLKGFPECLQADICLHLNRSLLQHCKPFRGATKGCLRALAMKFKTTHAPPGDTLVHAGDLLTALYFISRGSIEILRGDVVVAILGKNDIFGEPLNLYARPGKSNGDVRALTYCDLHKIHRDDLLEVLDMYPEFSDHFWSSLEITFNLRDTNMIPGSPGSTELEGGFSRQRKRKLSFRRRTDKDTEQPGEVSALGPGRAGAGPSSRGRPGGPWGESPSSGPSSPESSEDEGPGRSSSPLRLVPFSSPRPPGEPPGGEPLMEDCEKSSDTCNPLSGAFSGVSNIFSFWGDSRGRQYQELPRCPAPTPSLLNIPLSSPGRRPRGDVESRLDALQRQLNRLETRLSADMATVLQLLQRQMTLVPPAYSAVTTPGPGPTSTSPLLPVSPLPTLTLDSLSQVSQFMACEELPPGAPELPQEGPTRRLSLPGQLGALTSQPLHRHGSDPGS
Text: as §1

11β-HSD2 (hHSD2) = target: T3, 11β-HSD2 (hHSD2) (Homo sapiens, UniProt P80365); assay: 11β-HSD2 inhibition, Scintillation Proximity Assay; format: biochemical; settings: SPA, tritiated cortisol, NAD
T3 sequence (P80365 1-405): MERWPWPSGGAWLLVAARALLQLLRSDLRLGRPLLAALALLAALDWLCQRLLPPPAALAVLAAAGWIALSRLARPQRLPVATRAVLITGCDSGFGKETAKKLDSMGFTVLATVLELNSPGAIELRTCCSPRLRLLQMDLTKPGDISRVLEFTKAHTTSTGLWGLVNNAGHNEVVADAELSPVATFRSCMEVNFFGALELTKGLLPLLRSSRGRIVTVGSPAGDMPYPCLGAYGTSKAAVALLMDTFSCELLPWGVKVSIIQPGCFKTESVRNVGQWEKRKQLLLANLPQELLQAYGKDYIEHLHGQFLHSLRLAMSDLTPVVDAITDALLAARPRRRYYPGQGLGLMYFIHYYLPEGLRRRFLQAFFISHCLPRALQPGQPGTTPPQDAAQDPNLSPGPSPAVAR
Protocol: (§2) In vitro enzymatic activity is assessed for test compounds via a Scintillation Proximity Assay (SPA). Tritiated-cortisone substrate, NADPH cofactor and titrated compound are incubated with 11β-HSD1 enzyme at 37° C. to allow conversion to cortisol to progress. Following this incubation, protein A coated SPA beads, pre-blended with anti-cortisol monoclonal antibody and a non-specific 11β-HSD inhibitor, are added to each well. The mixture is shaken at 15° C. and then read on a liquid scintillation counter suitable for 96 well plates.
(§3) Percent inhibition is calculated relative to a non-inhibited control well, and IC50 curves are generated.
(§4) This assay is similarly applied to 11β-HSD2. Tritiated cortisol and NAD are used as the substrate and cofactor, respectively. 40 μL of substrate (25 nM ^3H-Cortisone+1.25 mM NADPH in 50 mM HEPES Buffer, pH 7.4) are added to designated wells on a 96 well plate. Solid compound is dissolved in DMSO at 10 mM followed by a subsequent 50 fold dilution in DMSO. The diluted material is then titrated 4 fold, seven times. 1 μL of each titrated compound is then added in duplicate to the substrate. To start the reaction, 10 μL of 11β-HSD1 microsome from CHO transfectants is added to each well at the appropriate concentration to yield approximately 10% conversion of the starting material. For ultimate calculation of percent inhibition, a series of wells is added that represent the assay minimum and maximum: one set that contains substrate without compound or enzyme (background), and another set that contains substrate and enzyme without any compound (maximum signal). The plates are spun briefly at a low speed in a centrifuge to pool the reagents, sealed with an adhesive strip, mixed gently, and incubated at 37° C. for 2 hours. After incubation, 45 μL of SPA beads, pre-suspended with anti-cortisol monoclonal antibody and non-specific 11β-HSD inhibitor, are added to each well. The plates are resealed and shaken gently for greater than 1.5 hours at 15° C. Data is collected on a plate based liquid scintillation counter such as a Topcount. To control for inhibition of anti-cortisol antibody/cortisol binding, substrate spiked with 1.25 nM [3]H cortisol is added to designated single wells. 1 μL of 200 μM compound is added to each of these wells, along with 10 μL of buffer instead of enzyme. Any calculated inhibition is due to compound interfering with the cortisol binding to the antibody on the SPA beads.

11β-HSD1 enzyme (hHSD1) = target: T4, 11β-HSD1 enzyme (hHSD1) (Homo sapiens, UniProt P28845); assay: 11β-HSD1 inhibition, Scintillation Proximity Assay; format: biochemical; settings: SPA, tritiated cortisone, NADPH
T4 construct: expressed in transfected cells; host or cells: CHO transfectants (microsomes)
T4 sequence (P28845 whole entry): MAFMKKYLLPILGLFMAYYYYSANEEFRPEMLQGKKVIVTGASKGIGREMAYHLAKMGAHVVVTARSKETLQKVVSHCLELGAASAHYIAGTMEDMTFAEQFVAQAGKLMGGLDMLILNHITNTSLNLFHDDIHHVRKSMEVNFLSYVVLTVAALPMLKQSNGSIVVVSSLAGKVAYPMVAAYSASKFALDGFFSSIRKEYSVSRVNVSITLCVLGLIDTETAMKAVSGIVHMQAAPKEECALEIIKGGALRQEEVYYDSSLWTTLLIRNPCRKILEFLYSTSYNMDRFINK
Protocol: 11β-HSD1 Inhibition Constants
as §2, §3, §4

[3] = CHO cell membranes, [3H]CP-55940 0.6 nM, read-out: hCB1 IC50

T1 sequence (P34972 whole entry): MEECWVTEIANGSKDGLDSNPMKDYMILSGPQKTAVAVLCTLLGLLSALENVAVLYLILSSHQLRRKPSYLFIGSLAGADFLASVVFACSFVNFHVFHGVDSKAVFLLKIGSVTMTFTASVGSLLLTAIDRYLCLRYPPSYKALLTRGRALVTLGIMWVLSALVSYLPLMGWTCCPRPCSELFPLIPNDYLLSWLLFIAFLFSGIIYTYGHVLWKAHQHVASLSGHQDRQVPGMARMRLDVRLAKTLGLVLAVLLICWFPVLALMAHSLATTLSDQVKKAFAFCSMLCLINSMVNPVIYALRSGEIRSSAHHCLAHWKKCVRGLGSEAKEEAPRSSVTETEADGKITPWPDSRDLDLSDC

Structure (SMILES)	IC50 ([1]; CHO cells, read-out: hCB2 IC50)	IC50 (11β-HSD2 (hHSD2))	IC50 (11β-HSD1 enzyme (hHSD1))	other results
Cn1c(C(=O)NN2CCCCC2)nc(-c2ccc(Cl)cc2Cl)c1-c1ccc(Cl)cc1 [Compound 2, N-(Piperidin-1-yl)-4-(2,4-dichlorophenyl)-5-(4-chlorophenyl)-1-methylimidazole-2-carboxamide]	100 to 1000 nM			IC50 [2, 3]: < 10 nM; Ion Channel Values Na (Sodium channel site 2): 6 µM; Ion Channel Values Ca (Calcium channel): 1200 nM; Ion Channel Values K (Potassium channel (Ikr)): 1.3 µM
Cc1ccc(-c2nc(C(=O)NC3CCCCC3)n(C)c2-c2ccc(C)cc2)cc1 [Compound 4, N-Cyclohexyl-4,5-di-(4-methylphenyl)-1-methylimidazole-2-carboxamide]	> 1000 nM			IC50 [2]: 100 to 1000 nM
Cn1c(C(=O)NC2CCCCC2)nc(-c2ccc(Cl)cc2Cl)c1-c1ccc(Cl)cc1 [Compound 5, N-(Cyclohexyl)-4-(2,4-dichlorophenyl)-5-(4-chlorophenyl)-1-methylimidazole-2-carboxamide]				IC50 [1]: 100 to 1000 nM; IC50 [2]: < 10 nM; Ion Channel Values Na (Sodium channel site 2): 4 µM; Ion Channel Values Ca (Calcium channel): 4600 nM; Ion Channel Values K (Potassium channel (Ikr)): 5.6 µM
Cn1c(C(=O)Nc2ccccc2)nc(-c2ccc(Cl)cc2Cl)c1-c1ccc(Cl)cc1 [Compound 6, N-(Phenyl)-4-(2,4-dichlorophenyl)-5-(4-chlorophenyl)-1-methylimidazole-2-carboxamide]	100 to 1000 nM			IC50 [2, 3]: 10 to 100 nM

The next lines start with results.

IC50 ([1]; CHO cells, read-out: hCB2 IC50)	IC50 (11β-HSD2 (hHSD2))	IC50 (11β-HSD1 enzyme (hHSD1))	Structure (SMILES)	other results
> 1000 nM			Cc1ccc(-c2nc(C(=O)NN3CCCCC3)n(C)c2-c2ccc(C)cc2)cc1 [Compound 3, N-(Piperidin-1-yl)-4,5-di-(4-methylphenyl)-1-methylimidazole-2-carboxamide]	
	> 1000 nM	10 to 100 nM	CC12CC3(C)CC(C)(C1)CC(Cc1nnc4n1CCCCC4)(C2)C3 [Compound 7, 3-[(3,5,7-trimethyl-1-adamantyl)methyl]-6,7,8,9-tetrahydro-5H-[1,2,4]triazolo[4,3-a]azepine Trifluoroacetate Salt]	
	> 1000 nM	10 to 100 nM	CCSc1nnc(C23CC4CC(CC(C4)C2)C3)n1CC [Compound 8, 3-(1-adamantyl)-4-ethyl-5-(ethylthio)-4H-1,2,4-triazole]	
	< 10 nM	< 10 nM	COc1cc(-c2nnc(C34CC5CC(CC(C5)C3)C4)n2C)cc(OC)c1OC [Compound 9, 3-(1-adamantyl)-5-(3,4,5-trimethoxyphenyl)-4-methyl-4H-1,2,4-triazole]	
	> 1000 nM	100 to 1000 nM	C1CCCCc2nnc(C34CC5CC(CC(C5)C3)C4)n2CCCC1 [Compound 10, 3-adamantanyl-4,5,6,7,8,9,10,11,12,3a-decahydro-1,2,4-triazolo[4,3-a][11]annulene]	
